Results published in patent publication US5773569A (Affymax Technologies N.V., priority 1995, dated 1998).

Experiments:
FDCP-1/muER cells = assay: Peptide-induced initiation of cell cycle measured by DNA content; format: cell-based, murine; details: 10 U/ml; ten hours postinduction; medium control 15%
Procedure: F. Cellular response kinetics: Peptide-Induced Initiation of Cell Cycle Measured By DNA Content
1. Experimental Protocol: FDCP-1/muER cells were grown to stationery phase ≈3.0×10^6 cells/ml. […] Three million cells were collected at the following time points: 0, 6, 8, 10, and 12 hr. (see, FIG. 15). Cells were washed twice in cold PBS and fixed by resuspending the cell pellet in 100 μl of cold PBS followed by 900 μl of cold 70% ethanol. Cells were stained with 50 μg/ml of propidium iodine and fluorescence was measured on FACS Scan Flow cytometer. The percentage of cells in each phase was measured using the SOBR model of CelIFIT software, by Becton Dickinson.

[1] = test system: polycythemic exhypoxic mice (59Fe incorporation); assay: Polycythemic exhypoxic mouse bioassay; format: in vivo; details: subcutaneous
Procedure: J. Polycythemic Exhypoxic Mouse Bioassay
Female BDF1 mice (18-20 gms) are subjected to a conditioning cycle (in hypobaric chambers) of 18 hrs. at 0.40±0.02 atm. and 6 hrs. at ambient pressure for a period of 14 days.
Mice are maintained at ambient pressure for 72 hrs prior to administration of r-HuEPO or test samples. Test samples or r-HuEPO standard are diluted for injection into conditioned mice. The vehicle consists of: PBS containing 0.1% BSA (w/v). For each dilution, 0.5 ml is administered subcutaneously into each of 10 mice. ^59 Fe is administered 48 hrs. later. Blood samples are taken 48 hrs. following administration of ^59 Fe. Hematocrits and radioactivity measurements are determined for each sample. Dose range and results (two different assays) are set forth in Table 22 and FIGS. 17A-17C, infra.

[2] = test system: human peripheral blood mononuclear cells; assay: Colony assay on a human peripheral blood specimen; format: cell-based
Procedure: (§1) G. Colony Assay: Murine Bone Marrow and Human Peripheml Blood Colony Assay
(§2) A ten milliliter sample of peripheral blood was obtained from a healthy individual in a standard sterile heparin vacutainer tube. Murine bone marrow was obtained from the femurs of approximately 10 mice per experiment. All reagents were obtained from Stem Cell Technologies Inc. (Vancouver, Canada).
(§3) a. Experimental Protocol: Briefly, a nucleated cell count was performed to establish the number and concentration of nucleated cells in the original sample. In the case of peripheral blood, the sample is subjected to centrifugation through a Ficoll-Hypaque (1.077 g per ml) gradient at 400 g for 30 minutes at room temperature. Mononuclear cells at the interface of the Ficoll-Hypaque solution are carefully removed and diluted to a total volume of about 10 ml. The cells obtained from murine bone marrow or human peripheral blood were collected by centrifugation and the supernatant was decanted. The pelleted cells were resuspended in fresh medium and subjected to collection as described above. The washed cells were diluted in Iscove's medium/2% fetal bovine serum to the following concentration for plating:
Normal blood: 4×10^5 light density cells
(§4) Cells were added to methyl cellulose per directions of the manufacturer. […] Equivalent cell numbers were plated in "Complete" methylcellulose medium to assess maximal colony formation. A control plate was run with each assay minus EPO and peptide to determine background colony formation. Colonies were scored after both 10 days and 18 days of incubation.

murine bone marrow cells = assay: Colony assay, murine bone marrow; format: cell-based; details: EPO
Procedure: as §1, §2, §3
Normal marrow: 1×10^5 light density cells
as §4

[3] = scored 2/23/94, EPO (METHOCULT)

EPO: Erythropoietin, glycoprotein hormone with 165 amino acids; recombinant standard
cells in S phase (FDCP-1/muER cells): approximately 45%
LOG MEAN ([1]; dose 0.025 U): 1.65
LOG MEAN ([1]; dose 0.050 U): 2.74
LOG MEAN ([1]; dose 0.100 U): 3.28
CFU-E ([2]; scored 2/23/94, 3 U/ml): 7
MBFU-E ([2]; scored 2/23/94, 3 U/ml): 7
CFU-E [2, 3]: 11
MBFU-E [2, 3]: 25
CFU-E ([2]; scored 3/4/94, 3 U/ml): 4
CFU-GM ([2]; scored 3/4/94, 3 U/ml): 3
MBFU-E ([2]; scored 3/4/94, 3 U/ml): 7
PBFU-E ([2]; scored 3/4/94, 3 U/ml): 7
CFU-E ([2]; scored 3/4/94, EPO (METHOCULT)): 1
CFU-GM ([2]; scored 3/4/94, EPO (METHOCULT)): 9
MBFU-E ([2]; scored 3/4/94, EPO (METHOCULT)): 11
PBFU-E ([2]; scored 3/4/94, EPO (METHOCULT)): 13
BFU-E colony-forming cell numbers (murine bone marrow cells; Table 14 (1/28/94), 2/10/94): 5
CFU-E colony-forming cell numbers (murine bone marrow cells; Table 14 (1/28/94), 2/10/94): 23
CFU-GM colony-forming cell numbers (murine bone marrow cells; Table 14 (1/28/94), 2/10/94): 3
BFU-E colony-forming cell numbers (murine bone marrow cells; Table 14 (1/28/94), 2/21/94): 30
CFU-E colony-forming cell numbers (murine bone marrow cells; Table 14 (1/28/94), 2/21/94): 0
CFU-GM colony-forming cell numbers (murine bone marrow cells; Table 14 (1/28/94), 2/21/94): 3
BFU-E colony-forming cell numbers (murine bone marrow cells; Table 15 (2/21/94), 3/1/94): 3
CFU-E colony-forming cell numbers (murine bone marrow cells; Table 15 (2/21/94), 3/1/94): 3
CFU-GM colony-forming cell numbers (murine bone marrow cells; Table 15 (2/21/94), 3/1/94): > 10
CFU-E colony-forming cell numbers (murine bone marrow cells; Table 15 (2/21/94), 3/14/94): 0
CFU-GM colony-forming cell numbers (murine bone marrow cells; Table 15 (2/21/94), 3/14/94): 26
MBFU-E colony-forming cell numbers (murine bone marrow cells; Table 15 (2/21/94), 3/14/94): 0
PBFU-E colony-forming cell numbers (murine bone marrow cells; Table 15 (2/21/94), 3/14/94): 10
